The text below walks through data of patent US20260284020A1, “LATS KINASE INHIBITOR TO TREAT RETINAL DEGENERATION” (Children's Hospital Los Angeles, priority 2023, published 2026).

“Also recorded” adds a separate entry of the source.

The test deals with primary human fetal RPE monolayers. Kind of test: In vitro wound healing (scratch) assay in RPE monolayers. The format is cell-based. Particulars: for wound healing (wound closure, change in wound area as a percentage): 1 μM, mean±SE. Here is the method: Approximately 72 hours before wound induction, culture media for primary human fetal RPE either remained supplemented with 5% FBS as above (FBS-containing condition) or was replaced with culture media not containing FBS (FBS-free condition). Culture media for iPSC-derived RPE either remained as X-VIVO media as above (FBS-free condition) or was supplemented with 5% FBS (FBS-containing condition).
Following 72-hour acclimation period, RPE monolayers were then subjected to a controlled horizontal scratch using the WoundMaker Tool™ (Essen BioScience Ltd., Welwyn Garden City, United Kingdom) according to the protocol provided by the manufacturer. Wells were subsequently washed 1-2 times with their respective media in order to remove cell debris. Cells were then treated with either 1 μM DMSO (as control) or 1 μM TDI-011536 dissolved in either FBS-containing or FBS-free media. To label and track proliferating cells, cells were incubated with 10 μM 5-Ethynyl-2′-deoxyuridine (EdU) for 96 hours.
Each well was imaged immediately following the scratch injury with a DMI6000B microscope equipped with 10×/0.3 HC PL FLUOTAR Ph1 (Leica Microsystems, Buffalo Grove, IL) and ORCA-Flash4.0 LT camera (Hamamatsu Corp., Bridgewater, NJ). Along the length of each scratch, 2-3 ROIs measuring 1100 μm in length were imaged again 24, 48, 72, and 96 hours after the scratch injury. All ROIs were positioned in the central portion of the scratch. Coordinates of ROIs within each well were stored using Leica Application Suite X software. Non-uniform scratches and/or those with small width or resulting in monolayer detachment were excluded.
Scratch areas in μm^2 for each ROI were obtained using the Wand Tool in QuPath at each time point (e.g., 0, 24, 48, 72, and 96 hours after the scratch). Wound healing was quantified as the difference in scratch area at each time point normalized to (e.g., divided by) the total area immediately post-scratch, expressed as a percentage.
A wound healing assay, which involves creating a uniform scratch on a confluent monolayer of cells, is a commonly used method to study response to injury in vitro. To assess whether Hippo pathway inhibition promotes RPE regeneration, a wound healing assay was performed on primary human fetal RPE monolayers grown on 96-well plates in various culture conditions. RPE monolayers were subjected to a horizontal scratch and incubated with EdU and either LKI or vehicle. Wound closure was monitored every 24 hours for 96 hours total (FIGS. 1A and 1B).

Take `O=C(/N=c1\scc(CO)n1Cc1ccccc1)c1c[nH]c2ncccc12` [TDI-011536]: the “wound healing (wound closure, change in wound area as a percentage)” value reads like this: (24 hours after scratch, FBS-free media) 25.06±0.96%; (48 hours after scratch, FBS-free media) 58.72±1.37%; (72 hours after scratch, FBS-free media) 85.14±1.16%; (96 hours after scratch, FBS-free media) 91.14±1.17%. Also, the “difference in wound closure, LKI compared to control” value turned out to be 8.25±1.49% (24 hours, FBS-free media); 17.53±2.00% (48 hours, FBS-free media); 19.78±1.81% (72 hours, FBS-free media); 14.02±1.85% (96 hours, FBS-free media). Further, the “wound closure compared to DMSO (in words)” value (FBS-containing media, all timepoints) is on record as “significantly increased wound closure at all timepoints”. Where the note is “FBS-free media, all time points 24-96 hours, listed as LKI”, the “wound closure compared to control (in words)” value is recorded as “significantly increased at all time points; also recorded: significantly improved wound closure at all time points”.
